Laboratory results: patent US10322112B2, “Compound combinations for attenuation of bacterial virulence” (priority 2016, dated 2019)

Target: T1, LasR (Pseudomonas aeruginosa, UniProt P25084)
T1 construct: expressed in transfected cells; host or cells: E. coli JLD271
Assay: E. coli reporter gene primary agonism assay, LasR
Assay type: cell-based
Conditions: compounds at 100 mm; E. coli reporter strain JLD271/pJN105L/pSC11; 100 mm OdDHL = 100%; error ±10%
Procedure: (§1) Percent agonism of a given non-native inducer in a given bacterium and QS system receptor is measured with resepct to the maximum level of agonism (activation) by the native ligand of that receptor in the given bacterium. Percent antagonism is measured in competitive assays. The QS system of interest is activated to 100% with added or endogenous native ligand and the % antagonism of the non-native inducer is assessed with respect to 100% activation by the native inducer. The native ligand which induces LasR is OdDHL, which induces RhlR is BHL and which induces PqsR is PQS. As described herein and in cited references, assays for assessment of % agonism or % atangonism may be performed in E. coli systems (heterologous) or in the bacterium of interest, e.g., Pseudomonas. Dependent upon the assay system employed native ligand may be endogenously present or it may be exogenously supplied to the assay system. […] In antagonism assays using the native strains with functional QS systems, e.g., those of P. aeruginosa, endogenous native ligand is made in the system, so no native ligand is added. In native strains having one or more non-functional QS systems (mutant strains), e.g., P. aeruginosa mutants with non-functional QS systems, native ligand is added at about 10-100× the EC50 of the native ligand. In the agonism assay, native ligand is added as a control. Details of the assays are provided herein in Example 9 and in references cited in Example 9.

T1 sequence (P25084 whole entry): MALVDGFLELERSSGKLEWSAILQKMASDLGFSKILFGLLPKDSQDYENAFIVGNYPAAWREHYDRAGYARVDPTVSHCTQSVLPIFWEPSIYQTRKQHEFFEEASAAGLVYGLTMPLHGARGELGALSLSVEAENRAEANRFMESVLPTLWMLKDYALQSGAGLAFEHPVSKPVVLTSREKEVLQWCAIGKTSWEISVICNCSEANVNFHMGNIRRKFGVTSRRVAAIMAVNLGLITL

SMILES	Activation [%] LasR
O=C(Cc1cccc(I)c1)N[C@H]1CCOC1=O [C11]	56%
O=C(Cc1cccc(Br)c1)N[C@H]1CCOC1=O [C8]	44%
O=C(Cc1ccccc1)N[C@H]1CCOC1=O [C1]	−3%
O=C(CCc1cccc(Br)c1)N[C@H]1CCOC1=O [E31]	71%
N#Cc1cccc(CC(=O)N[C@H]2CCOC2=O)c1 [E5]	62%
Cc1cccc(CC(=O)N[C@H]2CCOC2=O)c1 [E1]	21%
CSc1cccc(CC(=O)N[C@H]2CCOC2=O)c1 [E7]	32%
O=C(Cc1ccccc1F)N[C@H]1CCOC1=O [C4]	−4%
O=C(CCc1ccc(Cl)cc1)N[C@H]1CCOC1=O [E30]	53%
O=C(Cc1ccc(F)cc1)N[C@H]1CCOC1=O [C2]	12%
O=C(Cc1cccc(Cl)c1)N[C@H]1CCOC1=O [C6]	30%
O=C(Cc1cccc(F)c1)N[C@H]1CCOC1=O [C3]	−2%
O=C(Cc1ccccc1I)N[C@H]1CCOC1=O [C12]	−4%
O=C(CCc1ccc([N+](=O)[O-])cc1)N[C@H]1CCOC1=O [E37]	22%
COc1cccc(CC(=O)N[C@H]2CCOC2=O)c1 [E2]	23%
C=CCCC(=O)N[C@H]1CCOC1=O [D8]	26%
O=C(CC1CCCC1)N[C@H]1CCOC1=O [B12]	−10%

Target: T2, RhlR (Pseudomonas aeruginosa, UniProt P54292)
T2 construct: expressed in transfected cells; host or cells: E. coli JLD271
Assay: E. coli reporter gene primary agonism assay, RhlR
Assay type: cell-based
Conditions: compounds at 100 mm; 900 mm BHL = 100%; error ±10%; selected data reproduced from Welsh et al., 2015
Procedure: as §1

T2 sequence (P54292 whole entry): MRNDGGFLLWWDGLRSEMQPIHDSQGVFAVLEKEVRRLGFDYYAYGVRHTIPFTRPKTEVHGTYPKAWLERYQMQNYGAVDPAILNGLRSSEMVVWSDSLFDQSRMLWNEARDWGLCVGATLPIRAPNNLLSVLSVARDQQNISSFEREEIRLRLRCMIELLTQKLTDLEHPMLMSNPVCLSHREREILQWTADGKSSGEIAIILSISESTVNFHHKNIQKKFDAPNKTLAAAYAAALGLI

SMILES	Activation [%] RhlR
O=C(Cc1cccc(I)c1)N[C@H]1CCOC1=O [C11]	63%
O=C(Cc1cccc(Br)c1)N[C@H]1CCOC1=O [C8]	80%
O=C(Cc1ccccc1)N[C@H]1CCOC1=O [C1]	84%
O=C(CCc1cccc(Br)c1)N[C@H]1CCOC1=O [E31]	65%
N#Cc1cccc(CC(=O)N[C@H]2CCOC2=O)c1 [E5]	67%
Cc1cccc(CC(=O)N[C@H]2CCOC2=O)c1 [E1]	69%
CSc1cccc(CC(=O)N[C@H]2CCOC2=O)c1 [E7]	70%
O=C(Cc1ccccc1F)N[C@H]1CCOC1=O [C4]	66%
O=C(CCc1ccc(Cl)cc1)N[C@H]1CCOC1=O [E30]	64%
O=C(Cc1ccc(F)cc1)N[C@H]1CCOC1=O [C2]	71%
O=C(Cc1cccc(Cl)c1)N[C@H]1CCOC1=O [C6]	82%
O=C(Cc1cccc(F)c1)N[C@H]1CCOC1=O [C3]	79%
O=C(Cc1ccccc1I)N[C@H]1CCOC1=O [C12]	70%
O=C(CCc1ccc([N+](=O)[O-])cc1)N[C@H]1CCOC1=O [E37]	69%
COc1cccc(CC(=O)N[C@H]2CCOC2=O)c1 [E2]	86%
C=CCCC(=O)N[C@H]1CCOC1=O [D8]	81%
O=C(CC1CCCC1)N[C@H]1CCOC1=O [B12]	79%

Target: QscR (Pseudomonas aeruginosa, UniProt G3XD77)
Assay: not given
Conditions: compounds at 100 mm; E. coli reporter strain JLD271/pJN105Q/pSC11-Q; 100 mm OdDHL = 100%; error ±10%
Excerpt: Construction of pSC11-Q: A 348 bp fragment spanning the upstream region of PA1897 (¢304 to +43 relative to the PA1897 translationalstart codon) was amplified from plasmid pJL101*by using primers 5′-GAATAT GGATCC TCTCTC CGCAGA TACCTG-3′ (BamHI site underlined) SEQ ID NO:5 and 5′-GCTATT GAATTC TGAAGA TGAATA GCGCCAC-3′ (EcoRI site underlined) SEQ ID NO:6. The PCR-generated fragment was digested with EcoRI and BamHI and subsequently ligated into EcoRI/BamHI-digested pPROBE-KT to generate pPROBE-KQ2. […] CGCC-3′ (BamHI site underlined) SEQ ID NO:8. The PCR-generated fragment was digested with SalI and BamHI and subsequently ligated into SalI/BamHI-digested pSC11 to generate pSC11-Q.
E. coli reporter gene assays: Primary assays for RhlR, LasR, and QscR activity in E. coli JLD271 reporter (beta-galactosidase) strains were performed as reported by Welsh et al. 2015, with the following modifications:
For all primary and dose-response antagonism assays, the concentration of native ligand utilized was approximately equal to its EC50 value in each bacterial reporter strain. For RhlR, LasR, and QscR primary antagonism assays, synthetic ligand (100 mm) was screened against BHL (10 mm), OdDHL (2 nm), and OdDHL (15 nm), respectively. For RhlR, LasR, and QscR primary agonism assays, synthetic compound (100 mm) was screened alongside and compared to the natural ligand (900 mm BHL or 100 mm OdDHL) for the receptor. As part of the beta-galactosidase assay protocol, plates to which CPRG substrate had been added were incubated at either 25° C. (LasR assay) or 30° C. (RhlR and QscR assays) until positive control wells developed a deep red color (10 min for LasR, 30 min for RhlR, and 60 min for QscR). Dose-response reporter gene assays were performed according to these protocols by using varying concentrations of compound.

QscR, sequence (G3XD77 entry or part of it): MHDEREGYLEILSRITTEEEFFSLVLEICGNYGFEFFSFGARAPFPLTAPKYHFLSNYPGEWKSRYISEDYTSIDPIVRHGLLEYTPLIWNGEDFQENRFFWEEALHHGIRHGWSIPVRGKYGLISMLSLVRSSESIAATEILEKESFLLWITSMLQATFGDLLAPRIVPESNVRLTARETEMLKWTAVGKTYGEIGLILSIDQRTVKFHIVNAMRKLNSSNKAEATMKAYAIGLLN

SMILES	Activation [%] QscR
O=C(Cc1cccc(I)c1)N[C@H]1CCOC1=O [C11]	34%
O=C(Cc1cccc(Br)c1)N[C@H]1CCOC1=O [C8]	33%
O=C(Cc1ccccc1)N[C@H]1CCOC1=O [C1]	3%
O=C(CCc1cccc(Br)c1)N[C@H]1CCOC1=O [E31]	58%
N#Cc1cccc(CC(=O)N[C@H]2CCOC2=O)c1 [E5]	34%
Cc1cccc(CC(=O)N[C@H]2CCOC2=O)c1 [E1]	29%
CSc1cccc(CC(=O)N[C@H]2CCOC2=O)c1 [E7]	24%
O=C(Cc1ccccc1F)N[C@H]1CCOC1=O [C4]	0%
O=C(CCc1ccc(Cl)cc1)N[C@H]1CCOC1=O [E30]	79%
O=C(Cc1ccc(F)cc1)N[C@H]1CCOC1=O [C2]	10%
O=C(Cc1cccc(Cl)c1)N[C@H]1CCOC1=O [C6]	30%
O=C(Cc1cccc(F)c1)N[C@H]1CCOC1=O [C3]	13%
O=C(Cc1ccccc1I)N[C@H]1CCOC1=O [C12]	5%
O=C(CCc1ccc([N+](=O)[O-])cc1)N[C@H]1CCOC1=O [E37]	65%
COc1cccc(CC(=O)N[C@H]2CCOC2=O)c1 [E2]	26%
C=CCCC(=O)N[C@H]1CCOC1=O [D8]	13%
O=C(CC1CCCC1)N[C@H]1CCOC1=O [B12]	12%
